Measured values published in patent US12453709B2, “Compositions and methods for treating autism” (priority 2013, dated 2025).

Tested on: symptoms of leaky gut
Experiment: Preliminary testing: effect on symptoms of leaky gut
Assay type: in vivo
Text: This may be due to the failure of the D amino acid isomer to be transported by the different L amino acid transport systems that exist within the body, or by completion for renal excretion that allows the L isomer to persist for a longer duration.

With `C[C@](N)(Cc1ccc(O)cc1)C(=O)O` (single isomer, unassigned) [Demser, α-methyl-L-tyrosine] as the compound, how does the “duration of effect on leaky gut symptoms” value read?
Its value is “short lived”.

What about the “effect on the symptoms of leaky gut” value of the same compound?
Its value is “beneficial effect”.
